The text below walks through data of PMC3115942 (PLoS ONE, 2011).

The subject of assay [1] is Gli1 mRNA expression in Sufu−/− MEF. The experiment in a line: Real time PCR of Gli1 mRNA in Sufu−/− MEF. The settings on record: 72 hours. It is filed as cell-based, mouse. As to the method: (§1) Cells were lysed for RNA extraction after 48 or 72 hours of treatment. Total RNA from cultured cells or tumor tissue was isolated using the GeneElute miniprep kit (Sigma-Aldritch) following the manufacturer^'s instructions. cDNA was synthesized from the isolated mRNA using the Retroscript kit (Ambion), and real-time PCR was carried out using the SYBR Green PCR master mix (Stratagene) according to the manufacturer^'s instructions with an Mx3000P cycler (Stratagene). The relative concentrations of cDNA present in each sample were calculated by the MxPro software (Stratagene), normalized for GAPDH (mRNA from cells) or GUS (mRNA from tumors). For real time PCR primer sequences see Table 6. For the tumor tissue real time PCR, previously described human and mouse specific primers against GUSB, PTCH1 and GLI1were used.
In general terms: In qPCR the cycle at which signal appears reflects the starting amount.

Assay [2] has as its system Gli1 protein in Sufu−/− MEF. The experiment in a line: Gli1 immunostaining of Sufu−/− MEF. It is filed as cell-based, mouse. The settings on record: 20 µM, 48 hours.
Assay [3] concerns GLI1 mRNA in SUIT-2 cells. The experiment in a line: Real time PCR of GLI1 mRNA in SUIT-2. It is filed as cell-based, human. The settings on record: 48 hrs. As to the method:
as §1

Assay [4] relates to Hh pathway in Shh-L2 cells. In words: Hh reporter assay in Shh-L2 cells. It is filed as cell-based, mouse. The settings on record: Mus musculus; pathway inhibition in Shh induced Shh-L2 cells, 48 hours treatment. As to the method:
Shh-L2 cells were used as a Hh reporter cell line as described previously. Hh signaling was induced by Shh conditioned medium, 200 nM SAG (AH-Diagnostics) and ActOXS (a combination of 5 µM Hydroxycholesterol 20-alfa and 5 µM Hydroxycholesterol 22S (Sigma-Aldrich)). For Shh conditioned medium, Shh-PANC-1 cells were grown to confluence and switched to fresh medium. Shh conditioned medium was harvested after 48 hours, and was diluted to 50% in fresh DMEM before use. The clonal Shh-PANC-1 cell line was generated by stably transducing PANC-1 cells with virus containing medium from HEK293T cells that were transfected using a Virapower Lentiviral expression kit (Invitrogen). The vector was produced by removing GFP from a pLenti 6.2-vector, and inserting the mouse Shh cDNA sequence.
The calculations were performed with an online calculator using the formula: a exp (−bx) + c at the website; http://www.changbioscience.com/stat/ec50.html
For orientation: Reporter assays use an easily measured gene product as a stand-in for the process of interest.

In the next assay the test system is PANC-1 cells. In words: In vitro antiproliferative assay (MTS), PANC-1. It is filed as cell-based, human. As to conditions: 5 µM, 4 day. As to the method: (§2) Cells were plated at a density of 3000 (THLE-2 and PC-3) and 1000 (PANC-1, SUIT-2 and FEMX) cells per well (on the basis of their growth rate) in 200 µl of medium in a 96-well plate. Medium was changed daily, and after four days, the assay was read using a MTS kit (Promega) according to the instructions of the manufacturer. Graphs display average of percent growth with standard deviation (n = 8).

For assay [5], the system named is GLI1 mRNA in PANC-1 cells. In words: Real time PCR of GLI1 mRNA in PANC-1. The settings on record: 5 µM, 48 hrs. It is filed as cell-based, human. As to the method:
as §1

Another assay relates to GLI1 mRNA in PC-3 cells. The experiment in a line: Real time PCR of GLI1 mRNA in PC-3. It is filed as cell-based, human. The settings on record: 48 hrs. As to the method: as §1
In assay [6] the test system is PANC-1, SUIT-2, PC-3 and FEMX cells. In words: In vitro antiproliferative assay (MTS), tumor cell lines. It is filed as cell-based, human. As to conditions: 10 µM, 4 day exposure; across PANC-1, SUIT-2, PC-3 and FEMX. As to the method:
as §2

As for `CC1=C2C[C@H]3[C@@H](CC=C4C[C@@H](O)CC[C@@]43C)[C@@H]2CC[C@]12O[C@@H]1C[C@H](C)CN[C@H]1[C@H]2C` [cyclopamine, reference compound], the “inhibitory effect on Hh signaling downstream of Smo in Sufu−/− MEFs” value in assay [1] was “little inhibitory effect”. Besides, the “total level of Gli1 in the cells” value in assay [2] was “no significant effect”. In addition, in assay [3], the “GLI1 mRNA levels, SUIT-2” value is given as “reduced GLI1 mRNA levels”. Besides, the IC50 (commonly the concentration that inhibits the measured activity by half) in assay [4] amounted to 0.21 µM.
On to `CS(=O)(=O)c1ccc(C(=O)Nc2ccc(Cl)c(-c3ccccn3)c2)c(Cl)c1` [GDC-0449, reference compound], for which the “inhibitory effect on Hh signaling downstream of Smo in Sufu−/− MEFs” value in assay [1] was “little inhibitory effect”. Besides, the “total level of Gli1 in the cells” value in assay [2] was “reduced Gli1 levels in the cells, but to a lesser extent than MS-0022”. For the same molecule, the “growth (MTS), PANC-1” value in the assay with PANC-1 cells is “reduced growth”. In assay [3], the “GLI1 mRNA levels, SUIT-2” value is “reduced GLI1 mRNA levels”. In addition, the IC50 in assay [4] was 0.03 µM. The “GLI1 mRNA levels, PANC-1” value in assay [5] is “without reducing GLI1 mRNA levels”. Besides, the “GLI1 mRNA levels, PC-3” value with GLI1 mRNA in PC-3 cells is reported as “reduced GLI1 mRNA levels”. The “growth reduction (MTS)” value in assay [6] was at most 30%.
